Data taken from ChEMBL document CHEMBL3430912, “GSK Tres Cantos Anti-Kinetoplastid Screening (TCAKS) Data”.

Legend:
Trypanosoma cruzi [1] = test: GSK_TCAKS: pIC50 Trypanosoma cruzi viability assay using beta-GAL activity. This assay was run at single shot at 5uM compound concentration per well. The biological reagents consisted of NIH-3T3 host cells and trypomastigotes parasitic cells; both cell types were set to a 3.3 * 10^5 cells/mL dilution in assay DMEM by means of a CASY cell counter device using a 60um capillary. 6 uL of the mixture were dispensed per well (about 1 * 10^3 host-cells and 1 * 10^3 parasites) with a Multidrop Combi dispenser. […] In all wells, the percentage of DMSO never exceeded 0.5%. Plates incubated for four days at 37C, 5% CO2. The substrate used for the assay fluorescence intensity (FLINT) readout was resorufin-beta-D-galactopiranoside (Sigma-Aldrich) at 5uM per well. It was diluted in PBS supplemented with the soft detergent Igepal (Fluka).; format: functional, organism-based, Mus musculus; details: Tulahuen, NIH3T3
Trypanosoma cruzi [2] = test: (§1) GSK_TCAKS: pIC50 Trypanosoma cruzi Imaging: Infected Cells. […] Cells were then washed once with PBS before infection. T. cruzi trypomastigotes, collected at days 5 to 8 after infection from LLC-MK2 parasite infected cultures, were allowed to swim out for 4h at 37C from a centrifuged pellet (2,500 rpm/10 min/room temperature). Trypomastigotes were then collected and counted in a CASY Cell Counter. Trypomastigotes, in supplemented DMEM, were added to H9c2 cultures in a multiplicity of infection of 1 and incubated for 18 h. Cells were washed once with PBS before incubation of the infected H9c2 monolayer with trypsin (Life-Technologies) to detach cells from the flask. Cells were counted in a CASY Cell Counter using a 150 um capillary and their density set at 5 * 10^4 cells per mL in supplemented assay DMEM. Infected H9c2 were dispensed into 384-well poly-lysine coated assay plates at 50uL per well using a Multidrop Combi dispenser. After seeding them, the plates were incubated at 37C, 5% CO2 for 72h. Cultures were then fixed and stained by addition of 50 uL of a solution containing 8% formaldehyde and 4 uM DRAQ5 DNA dye (BioStatus, UK) per well. […] Five images were collected per well for reliable statistical analysis. Automated image analysis was performed with a script developed on Acapella High Content Imaging and Analysis Software (PerkinElmer). Output: percentage of infected cells per well as a second infection marker.; format: functional, organism-based, Rattus norvegicus; details: H9c2, 4 h
Trypanosoma cruzi [3] = test: GSK_TCAKS: pIC50 Trypanosoma cruzi Imaging: Amastigotes/Cell. […] Cells were then washed once with PBS before infection. T. cruzi trypomastigotes, collected at days 5 to 8 after infection from LLC-MK2 parasite infected cultures, were allowed to swim out for 4h at 37C from a centrifuged pellet (2,500 rpm/10 min/room temperature). Trypomastigotes were then collected and counted in a CASY Cell Counter. Trypomastigotes, in supplemented DMEM, were added to H9c2 cultures in a multiplicity of infection of 1 and incubated for 18 h. Cells were washed once with PBS before incubation of the infected H9c2 monolayer with trypsin (Life-Technologies) to detach cells from the flask. Cells were counted in a CASY Cell Counter using a 150 um capillary and their density set at 5 * 10^4 cells per mL in supplemented assay DMEM. Infected H9c2 were dispensed into 384-well poly-lysine coated assay plates at 50uL per well using a Multidrop Combi dispenser. After seeding them, the plates were incubated at 37C, 5% CO2 for 72h. Cultures were then fixed and stained by addition of 50 uL of a solution containing 8% formaldehyde and 4 uM DRAQ5 DNA dye (BioStatus, UK) per well. […] Five images were collected per well for reliable statistical analysis. Automated image analysis was performed with a script developed on Acapella High Content Imaging and Analysis Software (PerkinElmer). Output: number of amastigotes per cell as infection level measurement.; format: functional, organism-based, Rattus norvegicus; details: H9c2, 4 h
Trypanosoma cruzi [4] = test: as §1, with “H2C9” for “Trypanosoma cruzi”, “H9c2 Host Cardiomyocytes.” for “Infected Cells.”, “Number” for “percentage”, “H9c2 Host Cardiomyocytes nuclei to determine drug-related cytotoxicity.” for “infected cells per well as a second infection marker.”; format: functional, organism-based, Rattus norvegicus; details: H9c2, 4 h
Leishmania donovani [5] = test: GSK_TCAKS: pIC50 Leishmania donovani viability assay using fluorescence intensity. Assay plates (1536-well) were prepared by adding 30nL per well of compound. For single shot assay, the final compound concentration was 5uM. […] Briefly, eGFP LdBOB axenic amastigotes were harvested, fixed and counted in a CASY cell counter (Roche-Applied Science). A final concentration of 1.5 * 10^5 cells per well were prepared in amastigote media containing 500 U/mL penicillin/streptomycin (Invitrogen) and 6uL was dispensed to each experimental well using a Multidrop Combi dispenser (Thermo Scientific). 6uL of assay media was dispensed to control columns used as reference for 100% compound response. Following incubation for 72 h at 37C, 5% CO2, 2 uL of resazurin was added to each well at a final concentration of 0.5 mM in phosphate buffered saline (PBS) with IGEPAL (Sigma-Aldrich), 0.05% (v/v).; format: functional, organism-based
Leishmania donovani [6] = test: GSK_TCAKS: pIC50 Leishmania donovani Imaging: Infected Macrophages. Assay plates (384-well) were prepared by adding 250nL of compound to each well. For single shot assay, the final compound concentration was 5 uM. […] Automated image analysis was performed with a script developed on Acapella High Content Imaging and Analysis Software (PerkinElmer). Output: Percent of infected macrophage cells were reported for each well.; format: functional, organism-based, Homo sapiens; details: THP-1
Leishmania donovani [7] = test: GSK_TCAKS: pIC50 Leishmania donovani Imaging: Amastigotes/Macrophages. Assay plates (384-well) were prepared by adding 250nL of compound to each well. For single shot assay, the final compound concentration was 5 uM. […] Automated image analysis was performed with a script developed on Acapella High Content Imaging and Analysis Software (PerkinElmer). Output: Average number of amastigotes per macrophage cell were reported for each well.; format: functional, organism-based, Homo sapiens; details: THP-1
Leishmania donovani [8] = test: GSK_TCAKS: pIC50 Leishmania donovani Imaging: THP-1 Host Macrophages. Assay plates (384-well) were prepared by adding 250nL of compound to each well. For single shot assay, the final compound concentration was 5 uM. […] Automated image analysis was performed with a script developed on Acapella High Content Imaging and Analysis Software (PerkinElmer). Output: THP-1 cell count were reported for each well.; format: functional, organism-based, Homo sapiens
[9] = test system: Trypanosoma brucei brucei; test: GSK_TCAKS: pIC50 Trypanosoma brucei viability assay using fluorescence intensity. Assay plates (1536-well) were prepared by dispensing 25nL of compound solution per well using an Echo acoustic dispenser (Labcyte).; format: functional, organism-based; details: Lister 427, 2 h
[10] = test system: Trypanosoma brucei brucei; test: GSK_TCAKS: pIC50 Trypanosoma brucei viability assay using luminiscence. Assay plates (1536-well) were prepared. T. brucei cultures were harvested and counted in a CASY cell counter. A parasite suspension was prepared at a final concentration of 5 * 10^4 cells/mL in complete HMI9 medium and 6uL was dispensed to all wells containing compounds using a Multidrop Combi dispenser. 6uL of HMI9 media with 0.4% DMSO were dispensed to control columns. Plates were incubated for 24 h at 37C, 5% CO2 then tempered for 10 min at room temperature. ATP content was quantified by adding 4 uL of CellTiter-Glo Reagent (Promega) according to the manufacturer's instructions. Luminescence was measured using a ViewLux.; format: functional, organism-based; details: Lister 427, CASY
[11] = GSK_TCAKS: pIC50 HepG2 human cell line viability assay using luminiscence. […] Seeding density was checked to ensure that new mono-layers were not more than 50% confluent at the time of harvesting. Cell suspension was added to 500 mL of the same medium at a final density of 1.2 * 10^5 cells/mL. This cell suspension was dispensed (25 uL, 3000 cells per well) into 384-well clear-bottom plates using a Multidrop Combi dispenser. Prior to addition of the cell suspension, the screening compounds (250 nL) were pre-dispensed into the plates with an Echo liquid handler. Plates were incubated for 48 h at 37C, 5% CO2. After incubation, plates equilibrated at room temperature for 30 min before proceeding to develop the luminescent signal. The signal developer, CellTiter-Glo Reagent, was allowed to equilibrate at room temperature for 30 min and added to the plates (25uL per well) using a Multidrop Combi dispenser. Plates were left for 10 min at room temperature for stabilization and then read using a ViewLux.; format: toxicity, cell-based
[12] = molecular target: Sterol 14-alpha demethylase (Trypanosoma cruzi (strain CL Brener), UniProt Q7Z1V1); test: GSK_TCAKS: pIC50 CYP51 from Trypanosoma cruzi.; format: functional
Sterol 14-alpha demethylase, sequence (Q7Z1V1 whole entry): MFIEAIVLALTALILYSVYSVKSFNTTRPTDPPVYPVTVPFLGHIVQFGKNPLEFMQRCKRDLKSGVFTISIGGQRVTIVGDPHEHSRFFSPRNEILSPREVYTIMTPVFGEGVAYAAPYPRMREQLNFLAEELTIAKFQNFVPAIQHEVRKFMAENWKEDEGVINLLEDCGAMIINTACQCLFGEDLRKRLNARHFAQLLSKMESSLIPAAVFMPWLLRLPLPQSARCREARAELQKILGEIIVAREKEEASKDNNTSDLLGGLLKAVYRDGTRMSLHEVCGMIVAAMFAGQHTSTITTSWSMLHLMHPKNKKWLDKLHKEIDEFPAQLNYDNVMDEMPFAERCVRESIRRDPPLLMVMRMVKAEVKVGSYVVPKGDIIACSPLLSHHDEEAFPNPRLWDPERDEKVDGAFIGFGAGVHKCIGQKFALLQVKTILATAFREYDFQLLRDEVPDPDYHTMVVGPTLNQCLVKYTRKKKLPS

Row | Structure (SMILES) | IC50 (Trypanosoma cruzi [1]) | IC50 (Trypanosoma cruzi [2]) | IC50 (Trypanosoma cruzi [3]) | IC50 (Trypanosoma cruzi [4]) | IC50 (Leishmania donovani [5]) | IC50 (Leishmania donovani [6]) | IC50 (Leishmania donovani [7]) | IC50 (Leishmania donovani [8]) | IC50 [9] | IC50 [10] | IC50 at 48 h [11] | IC50 [12]
1 | Cc1ccnc(NS(=O)(=O)c2ccc(NC(=O)c3ccc([N+](=O)[O-])s3)cc2)n1 | 2 µM | 10 µM | 6.31 µM | 5.01 µM | 3.98 µM | 10 µM | 5.01 µM | 10 µM | 0.2 µM | 0.398 µM | 15.8 µM | 63.1 µM
2 | O=C(NCCCn1cnc2ccccc21)c1ccc(NC(=O)c2ccco2)cc1 | 3.98 µM | 2 µM | 1.26 µM | > 50.1 µM | 1.26 µM | > 50.1 µM | 12.6 µM | > 50.1 µM | 0.2 µM | 0.251 µM | 15.8 µM | 15.8 µM
3 | CCN(Cc1cccs1)C(=O)CSc1nnc(-c2ccc3c(c2)OCO3)o1 | 3.98 µM | 2.51 µM | 1.58 µM | > 50.1 µM | 3.16 µM | 2 µM | 2 µM | > 50.1 µM | 25.1 µM | > 39.8 µM | > 100 µM | 7.94 µM
4 | C=CCN(Cc1cccs1)C(=O)CSc1nnc(-c2ccc3c(c2)OCO3)o1 | 6.31 µM | 0.631 µM | 0.501 µM | > 50.1 µM | 6.31 µM | 3.16 µM | 1.26 µM | > 50.1 µM | 20 µM | 39.8 µM | > 100 µM | 7.94 µM
5 | N#Cc1cnc(Nc2cccc(CCN3CCOCC3)c2)nc1Nc1ccccc1C(N)=O | 1.26 µM | 3.16 µM | 2 µM | 0.0126 µM | 2.51 µM | 1.58 µM | 1 µM | 0.794 µM | 0.0631 µM | 0.251 µM | 25.1 µM | 10 µM
6 | CCOc1ccc(N(C)S(=O)(=O)c2ccc3[nH]cc(C(=O)NC4CCCC4)c(=O)c3c2)cc1 | 7.94 µM | > 50.1 µM | 6.31 µM | > 50.1 µM | > 50.1 µM | 31.6 µM | 31.6 µM | 25.1 µM | 0.251 µM | 0.501 µM | 50.1 µM | 6.31 µM
7 | CCC(=O)N1N=C(c2ccc3c(c2)CCCC3)Sc2c1ncn2C(=O)CC | 6.31 µM | 20 µM | 12.6 µM | > 50.1 µM | 25.1 µM | 3.16 µM | 2.51 µM | > 50.1 µM | 15.8 µM | 20 µM | > 100 µM | > 100 µM
8 | Cc1cc(NC(=O)C2CC2)ccc1OC1CCN(Cc2ccco2)CC1 | 15.8 µM | 39.8 µM | 20 µM | 39.8 µM | > 50.1 µM | 20 µM | 12.6 µM | 12.6 µM | 0.126 µM | 0.251 µM | 50.1 µM | 63.1 µM
9 | c1ccc(Nc2nc(-c3ccccn3)cc(N3CCOCC3)n2)cc1 | 2 µM | > 50.1 µM | 25.1 µM | 0.631 µM | 6.31 µM | 2 µM | 1.26 µM | > 50.1 µM | 15.8 µM | 12.6 µM | > 100 µM | > 100 µM
10 | CCNc1cc(-c2ccccn2)nc(Nc2ccccc2)n1 | 0.794 µM | 3.16 µM | 3.16 µM | 0.251 µM | 2.51 µM | 0.794 µM | 0.631 µM | 20 µM | 25.1 µM | 12.6 µM | 25.1 µM | > 100 µM
11 | CCNc1cc(-c2ccccn2)nc(Nc2ccc(OC)cc2)n1 | 0.708 µM | 3.16 µM | 2.51 µM | 0.316 µM | 1.58 µM | 0.501 µM | 0.398 µM | 25.1 µM | 12.6 µM | 10 µM | 39.8 µM | 39.8 µM
